In ChEMBL document CHEMBL6109039, “Designed and synthesized novel tripeptides targeting diabetes and its related pathologies” (Eur J Med Chem, 2025):
Residues, ends and D or L forms follow the SMILES beside them.

Assays:
Albumin [1] = target: T1, Albumin (Homo sapiens, UniProt P02768); test: Inhibition of D-fructose glycation in human serum albumin model assessed as reduction in fluorescence intensity incubated for 3 days by UV spectroscopic analysis relative to control; settings: 72 h, time 3 day
Alpha glucosidase = Alpha glucosidase (Homo sapiens, UniProt O43451+P10253+P14410+Q2M2H8); test: Inhibition of Alpha-glucosidase (unknown origin) using p-nitrophenyl-alpha-D-glucopyranoside as substrate pre-incubated for 10 mins followed by substrate addition and measured after 5 mins by spectrophotometric analysis; format: protein assay
Albumin [2] = target: T1, Albumin; test: Inhibition of D-fructose glycation in human serum albumin model by measuring absorbance at 279 nm incubated for 3 days by UV spectroscopic analysis (reference value: 0.492); settings: 72 h, time 3 day
Albumin [3] = target: T1, Albumin; test: Inhibition of D-fructose glycation in human serum albumin model by measuring absorbance at 279 nm incubated for 5 days by UV spectroscopic analysis (reference value: 1.056); settings: 120 h, time 5 day
Albumin [4] = target: T1, Albumin; test: Inhibition of D-fructose glycation in human serum albumin model by measuring absorbance at 279 nm incubated for 14 days by UV spectroscopic analysis (reference value: 2.333); settings: 336 h, time 14 day
Albumin [5] = target: T1, Albumin; test: Inhibition of D-fructose glycation in human serum albumin model by measuring absorbance at 279 nm incubated for 26 days by UV spectroscopic analysis (reference value: 2.267); settings: 624 h, time 26 day
Albumin [6] = target: T1, Albumin; test: Inhibition of D-fructose glycation in human serum albumin model by measuring absorbance at 279 nm incubated for 33 days by UV spectroscopic analysis (Rvb =2.222); settings: 792 h, time 33 day
Albumin [7] = target: T1, Albumin; test: Inhibition of D-glucose glycation in human serum albumin model by measuring absorbance at 279 nm incubated for 3 days by UV spectroscopic analysis (reference value: 0.562); settings: 72 h, time 3 day
Albumin [8] = target: T1, Albumin; test: Inhibition of D-glucose glycation in human serum albumin model by measuring absorbance at 279 nm incubated for 5 days by UV spectroscopic analysis (reference value: 0.741); settings: 120 h, time 5 day
Albumin [9] = target: T1, Albumin; test: Inhibition of D-glucose glycation in human serum albumin model by measuring absorbance at 279 nm incubated for 7 days by UV spectroscopic analysis (reference value: […]); settings: 168 h, time 7 day
Albumin [10] = target: T1, Albumin; test: Inhibition of D-fructose glycation in human serum albumin model by measuring ketoamine moieties incubated for 3 days by Nitroblue tetrazolium (NBT) reduction assay (reference value: 152.64 nmol/mL); settings: 72 h, time 3 day
Albumin [11] = target: T1, Albumin; test: Inhibition of D-fructose glycation in human serum albumin model by measuring ketoamine moieties incubated for 5 days by Nitroblue tetrazolium (NBT) reduction assay (reference value: 111.94 nmol/mL); settings: 120 h, time 5 day
Albumin [12] = target: T1, Albumin; test: Inhibition of D-fructose glycation in human serum albumin model by measuring ketoamine moieties incubated for 14 days by Nitroblue tetrazolium (NBT) reduction assay (reference value: 129.58 nmol/mL); settings: 336 h, time 14 day
Albumin [13] = target: T1, Albumin; test: Inhibition of D-glucose glycation in human serum albumin model by measuring ketoamine moieties incubated for 5 days by Nitroblue tetrazolium (NBT) reduction assay (reference value: 18.58 nmol/mL); settings: 120 h, time 5 day
Albumin [14] = target: T1, Albumin; test: Inhibition of D-glucose glycation in human serum albumin model by measuring ketoamine moieties incubated for 7 days by Nitroblue tetrazolium (NBT) reduction assay (reference value: 35.92 nmol/mL); settings: 168 h, time 7 day
Albumin [15] = target: T1, Albumin; test: Inhibition of D-glucose glycation in human serum albumin model by measuring ketoamine moieties incubated for 33 days by Nitroblue tetrazolium (NBT) reduction assay (reference value: 66.64 nmol/mL); settings: 792 h, time 33 day
Mus musculus [16] = test: Antidiabetic activity in Nicotinamide/Streptozotocin induced male Balb/c mouse model assessed as change in body weight at 63.81 ug/kg, ip treated for 21 days (reference value: 16.62 +/- 0.83 g); format: functional; settings: dose 63.81 µg/kg, time 21 day
Mus musculus [17] = test: Antidiabetic activity in Nicotinamide/Streptozotocin induced male Balb/c mouse model assessed as relative liver weight at 63.81 ug/kg, ip treated for 21 days (reference value: 0.77 +/- 0.04 mg/g); format: functional; settings: dose 63.81 µg/kg, time 21 day
Mus musculus [18] = test: Antidiabetic activity in Nicotinamide/Streptozotocin induced male Balb/c mouse model assessed as reduction in LDL-Cholesterol level in blood at 63.81 ug/kg, ip treated for 21 days (reference value: 46 +/- 2.30 mg/dL); format: functional; settings: dose 63.81 µg/kg, time 21 day
Mus musculus [19] = test: Antidiabetic activity in Nicotinamide/Streptozotocin induced male Balb/c mouse model assessed as reduction in alanine aminotransferase level in blood at 63.81 ug/kg, ip treated for 21 days (reference value: 111 +/- 5.05 U/L); format: functional; settings: dose 63.81 µg/kg, time 21 day
Mus musculus [20] = test: Antidiabetic activity in Nicotinamide/Streptozotocin induced male Balb/c mouse model assessed as TC/HDL-Cholesterol ratio in blood at 63.81 ug/kg, ip treated for 21 days (reference value: 4.03); format: functional; settings: dose 63.81 µg/kg, time 21 day
Mus musculus [21] = test: Antidiabetic activity in Nicotinamide/Streptozotocin induced male Balb/c mouse model assessed as LDL-Cholesterol/HDL-Cholesterol ratio in blood at 63.81 ug/kg, ip treated for 21 days (reference value: 1.53); format: functional; settings: dose 63.81 µg/kg, time 21 day
Mus musculus [22] = test: Antidiabetic activity in Nicotinamide/Streptozotocin induced male Balb/c mouse model assessed as Non-HDL-Cholesterol level in blood at 63.81 ug/kg, ip treated for 21 days (reference value: 75 mg/dL); format: functional; settings: dose 63.81 µg/kg, time 21 day
Mus musculus [23] = test: Antidiabetic activity in Nicotinamide/Streptozotocin induced male Balb/c mouse model assessed as reduction in fasting blood glucose levels at 63.81 ug/kg, ip measured immediately by glucometer analysis (reference value: 127.50 +/- 6.87 mg/dl); format: functional; settings: dose 63.81 µg/kg
Mus musculus [24] = test: Antidiabetic activity in Nicotinamide/Streptozotocin induced male Balb/c mouse model assessed as reduction in fasting blood glucose levels at 63.81 ug/kg, ip measured after 21 days by glucometer analysis (reference value: 180.5 +/- 9.02 mg/dl); format: functional; settings: dose 63.81 µg/kg, time 21 day
Mus musculus [25] = test: Antidiabetic activity in Nicotinamide/Streptozotocin induced male Balb/c mouse model assessed as reduction in HbA1c levels at 63.81 ug/kg, ip treated for 21 days by Turbidimetric immunoassay; format: functional; parameters: scale not given: the % may be the effect or the level left; settings: dose 63.81 µg/kg, time 21 day

T1 sequence (P02768 whole entry): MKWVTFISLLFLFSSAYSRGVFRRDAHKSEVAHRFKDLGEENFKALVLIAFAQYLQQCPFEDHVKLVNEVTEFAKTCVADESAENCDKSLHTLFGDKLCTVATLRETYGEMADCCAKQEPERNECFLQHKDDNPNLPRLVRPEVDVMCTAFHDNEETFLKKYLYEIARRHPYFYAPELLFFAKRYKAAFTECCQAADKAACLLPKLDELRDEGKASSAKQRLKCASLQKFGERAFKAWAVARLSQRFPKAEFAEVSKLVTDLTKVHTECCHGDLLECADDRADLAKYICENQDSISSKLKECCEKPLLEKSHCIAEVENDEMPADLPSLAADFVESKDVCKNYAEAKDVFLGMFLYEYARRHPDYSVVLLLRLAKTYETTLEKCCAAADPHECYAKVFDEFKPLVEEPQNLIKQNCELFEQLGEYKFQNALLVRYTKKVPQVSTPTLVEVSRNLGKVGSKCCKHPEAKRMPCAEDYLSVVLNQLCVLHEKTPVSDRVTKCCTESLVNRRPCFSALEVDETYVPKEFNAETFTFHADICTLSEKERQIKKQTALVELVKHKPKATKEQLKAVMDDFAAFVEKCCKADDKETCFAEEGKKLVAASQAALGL

N=C(N)NCCC[C@H](N)C(=O)N[C@@H](Cc1c[nH]c2ccccc12)C(=O)N[C@@H](Cc1c[nH]c2ccccc12)C(=O)O (H-Arg-Trp-Trp-OH)
inhibition (INH) (Albumin [1]): 52.78% | IC50 (Alpha glucosidase): 98 µM | OD (Albumin [2]): 0.287 | OD (Albumin [3]): 0.482 | OD (Albumin [4]): 1.207 | OD (Albumin [5]): 1.502 | OD (Albumin [6]): 1.298 | OD (Albumin [7]): 0.287 | OD (Albumin [8]): 0.335 | OD (Albumin [9]): 0.434 | Activity (Albumin [10]): 135.37 nmol/mL | Activity (Albumin [11]): 90.74 nmol/mL | Activity (Albumin [12]): 91.22 nmol/mL | Activity (Albumin [13]): 12.342 nmol/mL | Activity (Albumin [14]): 12.579 nmol/mL | Activity (Albumin [15]): 18.433 nmol/mL | Activity (Mus musculus [16]): 30.38 g | Activity (Mus musculus [17]): 1.22 mg/g | Activity (Mus musculus [18]): 31 mg/dL | Activity (Mus musculus [19]): 97 U/L | Ratio (Mus musculus [20]): 2.63 | Ratio (Mus musculus [21]): 0.75 | Activity (Mus musculus [22]): 67 mg/dL | Activity (Mus musculus [23]): 111.5 mg/dL | Activity (Mus musculus [24]): 115 mg/dL | Activity (Mus musculus [25]): 7.2%
